Data from EP0104596A2, “Furoindole derivatives” (TAISHO PHARMACEUTICAL CO. LTD, priority 1982, dated 1984).

Legend:
Type in all cases: in vivo
[1] = system: male rats of Wistar strain; assay: Acute oral toxicity (lethality) in rats; details: 10 male Wistar rats
[2] = system: male ddY mice; assay: Tail pressure method (analgesic effect); details: Mus musculus, po, pain threshold raised more than 50 % = positive, measured every 30 minutes for 120 minutes, read-out: Analgesic action (ED50) Tail pressure method
Protocol: (2) Tail Pressure Method [Takagi and Kameyama: Yakugaku Zasshi, 78, 553(1958)]
10 male ddY mice weighing 20 - 25 g were used in testing each compound. The pressure stimulus was applied to the base of the mouse tail. The test compounds were administered orally and the pain threshold was measured every 30 minutes for 120 minutes.
Animals of which post-drug pain threshold raised more than 50 % as compared with its pre-drug threshold were regarded as positive for the analgesic activity, and the ED50 values were calculated from the positive percent.

[3] = system: male Wistar rats; assay: Randall & Selitto method (analgesic effect, brewer's yeast inflamed paw); details: Rattus norvegicus, po, 2 hours after subplantar 20 % brewer's yeast, pain threshold every 1 hour for 4 hours, read-out: Analgesic action (ED50) Randall & Selitto method
Protocol: (3) Randall & Selitto Method [Randall and Selitto: Arch. Int. Pharmacodyn. 111, 409(1957)]
6 male Wistar rats weighing 90 - 110 g were used in testing each compound. The pain threshold was measured with an analgesic meter (Ugo Basile). The test compounds were adminstered orally 2 hours after the subplantar injection(0.1 ml/rat) of 20 % brewer's yeast suspension into the right hind paw, and the pain threshold was measured every 1 hour for 4 hours.
Animals of which post-drug pain threshold raised more than 50 % as compared with the threshold in control group were regarded as positive for the analgesic activity, and the ED50 values were calculated from the positive percent.

[4] = system: male ddY mice; assay: Acetic acid writhing method (analgesic effect); details: Mus musculus, po, 30 minutes before i.p. 0.7 % acetic acid, writhes counted 10 to 20 minutes after injection, read-out: Analgesic action (ED50) Acetic acid writhing method
Protocol: (1) Acetic Acid Writhing Method [Koster, Anderson and De Beer: Fed. Proc., 18, 412(1959)]
10 male ddY mice weighing 19 - 23 g were used in testing each compound. The test compounds were administered orally 30 minutes before in the intraperitoneal injection (0.1 ml/ 10 g ) of 0.7 % acetic acid. The number of writhes were counted in each mouse during a period spanning 10 to 20 minutes after the acetic acid injection.
The percent inhibition was calculated as compared with the number of writhes in the control group, and the ED50 values were calculated from the inhibitory percent.

[5] = system: male S.D. rats; assay: Adjuvant-induced arthritic pain (analgesic effect); details: Rattus norvegicus, po, Mycobacterium butyricum polyarthritis, pain response every 1 hour for 5 hours, read-out: Analgesic action (ED50) Adjuvant-induced arthritic pain method
Protocol: (4) Adjuvant-induced Arthritic Pain [Kuzuna and Kawai: Chem. Pha^rm. Bull., ^23, 1184(1975)]
6 male S.D. rats weighing 160 - 200 g were used in testing each compound. Polyarthritis was induced by the intradermal injection (0.1 ml/rat) of 0.5 % Mycobacterium butyricum suspension into the distal portion of the tail. The pain stimulus was applied by a gentle flection of the right tarso-tibial joints repeatedly 5 times at intervals 4 to 5 seconds, the vocalization following the pain stimulus was regarded as pain response.

CCCCC(CC)C(=O)n1c2cc(C(F)(F)F)ccc2c2oc(C(=O)N3CCOCC3)cc21 (stereo not shown) [Example 1, 4-(2-ethylhexanoyl)-2-morpholinocarbonyl-6-trifluoromethyl-furo-[3,2-b]-indole]
death ([1]; 1000 mg/kg orally): no death was observed

CC(C)OC(=O)n1c2cc(C(F)(F)F)ccc2c2oc(C(=O)N3CCOCC3)cc21 [Example 2, 4-isopropoxycarbonyl-2-morpholinocarbonyl-6-trifluoromethyl-furo-[3,2-b]indole]
death ([1]; 1000 mg/kg orally): no death was observed

CC(C)CC(=O)n1c2cc(C(F)(F)F)ccc2c2oc(C(=O)N3CCOCC3)cc21 [Example 3, 4-isobutylcarbonyl-2-morpholinocarbonyl-6-trifluoromethyl-furo[3,2-b]indole]
death ([1]; 2000 mg/kg orally): no death was observed

O=C(c1cc2[nH]c3cc(C(F)(F)F)ccc3c2o1)N1CCOCC1 [R: -H, 2-morpholinocarbonyl-6-trifluoromethyl-4H-furo[3,2-b]indole]
ED50 [2]: > 100 mg/kg
ED50 [3]: > 100 mg/kg
ED50 [4]: > 100 mg/kg
ED50 [5]: > 100 mg/kg
